Data taken from US20240083857A1, “2-Methyl-Quinazolines” (Bayer Pharma Aktiengesellschaft, priority 2017, published 2024).

Assays:
[1] = target: human SOS1 (loading of human K-Ras^G12C-GDP with fluorescent GTP-analog) (Homo sapiens, UniProt Q07889); test: Biochemical assay 3: K-Ras^G12C activation assay by hSOS1 (HTRF); details: no GTP; for IC50: read-out: Assay 3 (KRAS-Activation by SOS no GTP) activity expressed as IC50
[2] = target: K-Ras^G12C : hSOS1 interaction (Homo sapiens, UniProt Q07889); test: Biochemical assay 1: K-Ras^G12C interaction assay with hSOS1 (HTRF); assay type: binding; details: read-out: Assay 1 (KRAS-SOS Interaction) activity expressed as IC50

Structure (SMILES)	IC50 [1]	IC50 [2]	inhibition at 20 µM ([1]; read-out: Assay 3 (KRAS-Activation by SOS no GTP) activity expressed as % inhibition at 20 μM, at 20 μM)
COc1cc2nc(C)nc(NC(C)c3ccc(-c4cccc5[nH]ncc45)s3)c2cc1OC (stereo not shown) [Example 247, N-{1-[5-(1H-indazol-4-yl)thiophen-2-yl]ethyl}-6,7-dimethoxy-2-methylquinazolin-4-amine]	2.7 µM	0.591 µM	
C=Cc1ccccc1-c1ccc(C(C)Nc2nc(C)nc3cc(OC)c(OC)cc23)s1 (stereo not shown) [Example 248, N-{1-[5-(2-ethenylphenyl)thiophen-2-yl]ethyl}-6,7-dimethoxy-2-methylquinazolin-4-amine]	8.43 µM	1.49 µM	
COc1cc2nc(C)nc(NC(C)c3ccc(-c4cnn(CC(N)=O)c4)s3)c2cc1OC (stereo not shown) [Example 249, 2-[4-(5-{1-[(6,7-dimethoxy-2-methylquinazolin-4-yl)amino]ethyl}thiophen-2-yl)-1H-pyrazol-1-yl]acetamide]	8.79 µM	6.1 µM	
CNCc1ccccc1-c1ccc(C(C)Nc2nc(C)nc3cc(OC)c(OC)cc23)s1 (stereo not shown) [Example 250, 6,7-dimethoxy-2-methyl-N-[1-(5-{2-[(methylamino)methyl]phenyl}thiophen-2-yl)ethyl]quinazolin-4-amine]	0.0704 µM	0.05 µM	
COc1cc2nc(C)nc(NC(C)c3csc(-c4cnn(CCO)c4)c3)c2cc1OC (stereo not shown) [Example 251, 2-[4-(4-{1-[(6,7-dimethoxy-2-methylquinazolin-4-yl)amino]ethyl}thiophen-2-yl)-1H-pyrazol-1-yl]ethanol]		4.57 µM	52%
COc1cc2nc(C)nc(NC(C)c3ccc(-c4ccccc4CN)s3)c2cc1OC (stereo not shown) [Example 252, N-[1-{5-[2-(aminomethyl)phenyl]thiophen-2-yl}ethyl]-6,7-dimethoxy-2-methylquinazolin-4-amine]	0.103 µM	0.0802 µM	
COc1cc2nc(C)nc(NC(C)c3csc(-c4cnc5n4CCC5)c3)c2cc1OC (stereo not shown) [Example 253, N-{1-[5-(6,7-dihydro-5H-pyrrolo[1,2-a]imidazol-3-yl)thiophen-3-yl]ethyl}-6,7-dimethoxy-2-methylquinazolin-4-amine]	5.8 µM	1.31 µM	
COc1cc2nc(C)nc(NC(C)c3csc(-c4cnn(CCN5CCCC5)c4)c3)c2cc1OC (stereo not shown) [Example 254, 6,7-dimethoxy-2-methyl-N-[1-(5-{1-[2-(pyrrolidin-1-yl)ethyl]-1H-pyrazol-4-yl}thiophen-3-yl)ethyl]quinazolin-4-amine]	3.45 µM	0.814 µM	
COc1cc2nc(C)nc(NC(C)c3csc(-c4ccc(F)cc4CN)c3)c2cc1OC (stereo not shown) [Example 255, N-[1-{5-[2-(aminomethyl)-4-fluorophenyl]thiophen-3-yl}ethyl]-6,7-dimethoxy-2-methylquinazolin-4-amine]	0.39 µM	0.248 µM	
COc1cc2nc(C)nc(N[C@H](C)c3cccc(-c4cnn(CCO)c4)c3)c2cc1OC [Example 256, 2-[4-(3-{(1R)-1-[(6,7-dimethoxy-2-methylquinazolin-4-yl)amino]ethyl}phenyl)-1H-pyrazol-1-yl]ethanol]	1.35 µM	0.473 µM	
COc1cc2nc(C)nc(N[C@H](C)c3cccc(-c4cnn(CCN5CCCC5)c4)c3)c2cc1OC [Example 257, 6,7-dimethoxy-2-methyl-N-[(1R)-1-(3-{1-[2-(pyrrolidin-1-yl)ethyl]-1H-pyrazol-4-yl}phenyl)ethyl]quinazolin-4-amine]	0.852 µM	0.363 µM	
